# Data as given in patent publication US10214512B2, “Factor XIA inhibitors” (MERCK SHARP & DOHME CORP., priority 2015, dated 2019).
# Key:
# [1] = molecular target: purified Human plasma Kallikrein (Homo sapiens (Human), UniProt P03952); assay: Kallikrein Assay; format: biochemical; conditions: purified Human plasma Kallikrein 0.5 nM; substrate Acetyl-K-P-R-AFC; 50 mM HEPES pH 7.4; Ki from IC50 by Cheng Prusoff
# Protocol: The effectiveness of a compound of the present invention as an inhibitor of Kallikrein can be determined using a relevant purified serine protease, and an appropriate synthetic substrate. The rate of hydrolysis of the chromogenic or fluorogenic substrate by the relevant serine protease was measured both in the absence and presence of compounds of the present invention. Assays were conducted at rt or at 37° C. […] A decrease in the rate of fluorescence change in the presence of inhibitor is indicative of enzyme inhibition. Such methods are known to one skilled in the art. The results of this assay are expressed as the inhibitory constant, Ki.
# Kallikrein determinations were made in 50 mM HEPES buffer at pH 7.4 containing 150 mM NaCl, 5 mM CaCl2, and 0.1% PEG 8000 (polyethylene glycol; Fisher Scientific). Determinations were made using purified Human plasma Kallikrein at a final concentration of 0.5 nM (Enzyme Research Laboratories) and the synthetic substrate, Acetyl-K-P-R-AFC (Sigma # C6608) at a concentration of […].
# Times required to achieve equilibration between enzyme and inhibitor were determined in control experiments. […] IC50 was determined by inflection point from a four parameter logistic curve fit. Ki was calculated using the Cheng Prusoff equation, Ki=IC50/(1+([S]/Km)).
# [2] = molecular target: purified human Factor XIa (Homo sapiens (Human), UniProt P03951); assay: Factor XIa Assay; format: biochemical; conditions: purified human Factor XIa 40 pM; substrate Z-Gly-Pro-Arg-AFC 100 μM; 50 mM HEPES pH 7.4; read-out: Human FXIa Ki
# Sequence of purified human Factor XIa (P03951 388-625): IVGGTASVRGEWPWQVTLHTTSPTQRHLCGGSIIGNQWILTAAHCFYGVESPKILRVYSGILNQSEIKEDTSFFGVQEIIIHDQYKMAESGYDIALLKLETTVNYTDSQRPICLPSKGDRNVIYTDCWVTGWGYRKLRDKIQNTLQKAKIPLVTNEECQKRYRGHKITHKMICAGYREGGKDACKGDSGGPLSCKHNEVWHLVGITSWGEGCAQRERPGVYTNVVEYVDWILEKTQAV
# Sequence of purified human Factor XIa (P03951 19-387 partner): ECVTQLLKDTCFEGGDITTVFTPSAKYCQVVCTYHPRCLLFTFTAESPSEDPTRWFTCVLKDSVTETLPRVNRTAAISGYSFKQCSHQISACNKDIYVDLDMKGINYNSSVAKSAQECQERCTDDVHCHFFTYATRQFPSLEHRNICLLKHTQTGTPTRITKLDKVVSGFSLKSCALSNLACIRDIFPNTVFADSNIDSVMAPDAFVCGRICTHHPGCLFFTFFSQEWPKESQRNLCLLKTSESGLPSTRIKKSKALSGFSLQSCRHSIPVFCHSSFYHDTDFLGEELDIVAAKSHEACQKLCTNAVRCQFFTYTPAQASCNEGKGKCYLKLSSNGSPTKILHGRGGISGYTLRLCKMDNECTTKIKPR
# Procedure, shortened: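 Ki obtained from the dependence of uninhibited/inhibited initial-velocity ratio on inhibitor concentration, under a competitive-inhibition model. Reactions used 100 μM Z-Gly-Pro-Arg-AFC and 40 pM final human Factor XIa in pH 7.4 HEPES buffer with NaCl, CaCl2 and PEG 8000; run at rt or 37° C following pre-equilibration.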
# Sequence of purified Human plasma Kallikrein (P03952 391-638): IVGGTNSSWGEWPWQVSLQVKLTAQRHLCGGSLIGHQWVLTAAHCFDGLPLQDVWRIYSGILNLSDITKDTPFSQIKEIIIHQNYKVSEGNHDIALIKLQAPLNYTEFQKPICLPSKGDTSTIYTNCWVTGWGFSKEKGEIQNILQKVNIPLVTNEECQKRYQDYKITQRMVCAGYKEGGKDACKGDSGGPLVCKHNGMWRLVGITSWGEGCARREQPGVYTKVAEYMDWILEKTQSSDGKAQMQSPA
# Sequence of purified Human plasma Kallikrein (P03952 20-390 partner): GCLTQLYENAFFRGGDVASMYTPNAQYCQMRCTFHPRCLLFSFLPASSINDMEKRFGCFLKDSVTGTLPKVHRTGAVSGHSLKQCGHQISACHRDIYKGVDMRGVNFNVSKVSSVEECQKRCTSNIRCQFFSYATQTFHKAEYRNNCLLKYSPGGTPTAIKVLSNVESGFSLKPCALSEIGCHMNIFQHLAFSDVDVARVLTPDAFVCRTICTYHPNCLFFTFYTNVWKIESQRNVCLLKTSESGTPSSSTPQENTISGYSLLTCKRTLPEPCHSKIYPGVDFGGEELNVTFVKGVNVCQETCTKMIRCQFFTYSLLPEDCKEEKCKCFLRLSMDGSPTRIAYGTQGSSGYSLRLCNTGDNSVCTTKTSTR
Compound,Ki [1],Ki [2]
"2-(2^5-carboxy-4-oxo-3-aza- 1(1,3),2(1,2)- dibenzenacyclononaphane-9-yl)-5- (3-chloro-2,6-difluorophenyl)pyridine 1-oxide [Example 9]",379 nM,13.6 nM
COC(=O)Nc1ccc2c(c1)NC(=O)CC1CC1CC(c1ccc(-c3c(F)ccc(Cl)c3F)c[n+]1[O-])c1nc-2c[nH]1 (racemic) [Example 153],14.4 nM,3 nM
COC(=O)Nc1ccc2c(c1)NC(=O)CC1CC1CC(c1ccc(-c3c(F)cccc3C(F)F)c[n+]1[O-])c1nc-2c(C)[nH]1 (racemic) [Example 156],13.6 nM,1.55 nM
COC(=O)Nc1ccc2c(c1)NC(=O)CC1CC1CC(c1ccc(-c3c(C(F)F)ccc(Cl)c3F)c[n+]1[O-])c1nc-2c(C)[nH]1 (racemic) [Example 157],2.04 nM,0.45 nM
COC(=O)Nc1ccc2c(c1)NC(=O)CC1CC1CC(c1ccc(-c3c(C(F)F)ccc(C)c3F)c[n+]1[O-])c1nc-2c(C)[nH]1 (racemic) [Example 158],4.92 nM,1.07 nM
COC(=O)Nc1ccc2c(c1)NC(=O)CC1CC1CC(c1ccc(-c3c(OC(F)F)ccc(Cl)c3F)c[n+]1[O-])c1nc-2c(C)[nH]1 (racemic) [Example 159],3.5 nM,0.66 nM
"O=C1CCCCC(c2ccc(-c3cc(Cl)ccc3-n3cnnn3)c[n+]2[O-])c2c[nH]c(n2)-c2cc(F)ccc2N1 (racemic) [Example 160, (Z)-5-(5-chloro-2-(1H-tetrazol-1-yl)phenyl)-2-(2^5-fluoro-4-oxo-1^1H-3-aza-1(2,4)-imidazola-2(1,2)-benzenacyclononaphane-9-yl)pyridine 1-oxide]",4 nM,0.47 nM
"O=C1CCCCC(c2ccc(-c3c(-n4cnnn4)ccc(Cl)c3F)c[n+]2[O-])c2c[nH]c(n2)-c2cc(F)ccc2N1 (racemic) [Example 161, (Z)-5-(3-chloro-2-fluoro-6-(1H-tetrazol-1-yl)phenyl)-2-(2^5-fluoro-4-oxo-1^1H-3-aza-1(2,4)-imidazola-2(1,2)-benzenacyclononaphane-9-yl)pyridine 1-oxide]",1.35 nM,0.55 nM
"O=C1CCCCC(c2ccc(-c3c(-n4cnnn4)ccc(Cl)c3F)c[n+]2[O-])c2cccc(c2)-c2cc(C(=O)O)ccc2N1 (single isomer, unassigned) [Example 5-a, 2-(2^5-carboxy-4-oxo-3-aza-1(1,3),2(1,2)-dibenzenacyclononaphane-9-yl)-5-(3-chloro-2-fluoro-6-(1H-tetrazol-1-yl)phenyl)pyridine 1-oxide]",3.15 nM,0.13 nM
"COC(=O)Nc1ccc2c(c1)NC(=O)CCCCC(c1ccc(-c3cc(Cl)ccc3-n3cnnn3)c[n+]1[O-])c1cccc-2c1 (single isomer, unassigned) [Example 6-a, 5-(5-Chloro-2-(1H-tetrazol-1-yl)phenyl)-2-(2^4-((methoxycarbonyl)amino)-4-oxo-3-aza-1(1,3),2(1,2) -dibenzenacyclononaphane-9-yl)pyridine 1-oxide]",0.29 nM,0.1 nM
"O=C1CCCCC(c2ccc(-c3cc(Cl)cc(F)c3-n3cnnn3)c[n+]2[O-])c2cccc(c2)-c2cc(F)ccc2N1 (single isomer, unassigned) [Example 7-a, 5-(5-chloro-3-fluoro-2-(1H-tetrazol-1-yl)phenyl)-2-(2^5-fluoro-4-oxo-3-aza-1(1,3),2(1,2)-dibenzenacyclononaphane-9-yl)pyridine 1-oxide]",238 nM,2.4 nM
"O=C1CCCCC(c2ccc(-c3cc(Cl)ccc3-n3cnnn3)c[n+]2[O-])c2nc(c[nH]2)-c2cc(F)ccc2N1 (single isomer, unassigned) [Example 11-a, (Z)-5-(5-Chloro-2-(1H-tetrazol-1-yl)phenyl)-2-(2^5-fluoro-4-oxo-1^1h-3-aza-1(4,2)-imidazola-2(1,2)-benzenacyclononaphane-9-yl)pyridine 1-oxide]",2.12 nM,0.22 nM
"COC(=O)Nc1ccc2c(c1)NC(=O)CCCC[C@H](c1ccc(-c3c(F)cccc3OC(F)F)c[n+]1[O-])c1nc-2c(C)[nH]1 (single isomer, unassigned) [Example 126]",2.03 nM,–
"COC(=O)Nc1ccc2c(c1)NC(=O)CCCC[C@H](c1ccc(-c3c(OC(F)F)ccc(F)c3F)c[n+]1[O-])c1nc-2c(C)[nH]1 (single isomer, unassigned) [Example 130]",0.66 nM,–
"COC(=O)Nc1ccc2c(c1)NC(=O)CCCCC(c1ccc(-c3c(F)cccc3OC(F)(F)F)c[n+]1[O-])c1nc-2c(C)[nH]1 (single isomer, unassigned) [Example 131]",5.32 nM,–
"COC(=O)Nc1ccc2c(c1)NC(=O)CCCC[C@H](c1ccc(-c3c(F)cccc3-n3cc(C(F)(F)F)cn3)c[n+]1[O-])c1nc-2c(C)[nH]1 (single isomer, unassigned) [Example 137]",418 nM,–

Compound,Ki [1],Ki [2]
"COC(=O)Nc1ccc2c(c1)NC(=O)[C@H](C)CCC[C@H](c1ccc(-c3c(F)cccc3F)c[n+]1[O-])c1nc-2c(C2CC2)[nH]1 (single isomer, unassigned) [Example 145-a]",0.3 nM,–
"COC(=O)Nc1ccc2c(c1)NC(=O)[C@@H](C)CCC[C@H](c1ccc(-c3c(F)cccc3F)c[n+]1[O-])c1nc-2c(C2CC2)[nH]1 (single isomer, unassigned) [Example 145-c]",1.1 nM,–
"CCc1[nH]c2nc1-c1ccc(NC(=O)OC)cc1NC(=O)[C@H](C)CCC[C@@H]2c1ccc(-c2c(F)cccc2OC(F)F)c[n+]1[O-] (single isomer, unassigned) [Example 146-a]",0.71 nM,–
"CCc1[nH]c2nc1-c1ccc(NC(=O)OC)cc1NC(=O)[C@@H](C)CCC[C@@H]2c1ccc(-c2c(F)cccc2OC(F)F)c[n+]1[O-] (single isomer, unassigned) [Example 146-c]",3.46 nM,–
"COC(=O)Nc1ccc2c(c1)NC(=O)[C@H](C)CCC[C@H](c1ccc(-c3cc(F)ccc3OC(F)(F)F)c[n+]1[O-])c1nc-2c(C)[nH]1 (single isomer, unassigned) [Example 149-a]",2.02 nM,–
"COC(=O)Nc1ccc2c(c1)NC(=O)[C@@H](C)CCC[C@@H](c1ccc(-c3cc(F)ccc3OC(F)(F)F)c[n+]1[O-])c1nc-2c(C)[nH]1 (single isomer, unassigned) [Example 149-b]",53.7 nM,–
"COC(=O)Nc1ccc2c(c1)NC(=O)[C@@H](C)CCC[C@H](c1ccc(-c3cc(F)ccc3OC(F)(F)F)c[n+]1[O-])c1nc-2c(C)[nH]1 (single isomer, unassigned) [Example 149-c]",7.71 nM,–
"COC(=O)Nc1ccc2c(c1)NC(=O)[C@H](C)CCC[C@H](c1ccc(-c3c(OC(F)F)ccc(F)c3F)c[n+]1[O-])c1nc-2c(C)[nH]1 (single isomer, unassigned) [Example 150-a]",0.51 nM,–
"COC(=O)Nc1ccc2c(c1)NC(=O)[C@@H](C)CCC[C@@H](c1ccc(-c3c(OC(F)F)ccc(F)c3F)c[n+]1[O-])c1nc-2c(C)[nH]1 (single isomer, unassigned) [Example 150-b]",31.2 nM,–
"COC(=O)Nc1ccc2c(c1)NC(=O)[C@@H](C)CCC[C@H](c1ccc(-c3c(OC(F)F)ccc(F)c3F)c[n+]1[O-])c1nc-2c(C)[nH]1 (single isomer, unassigned) [Example 150-c]",1.5 nM,–
"COC(=O)Nc1ccc2c(c1)NC(=O)CC[C@@H](C)C[C@H](c1ccc(-c3c(F)ccc(Cl)c3F)c[n+]1[O-])c1nc-2c(C)[nH]1 (single isomer, unassigned) [Example 151-a]",0.16 nM,–
"COC(=O)Nc1ccc2c(c1)NC(=O)CC[C@H](C)C[C@H](c1ccc(-c3c(F)ccc(Cl)c3F)c[n+]1[O-])c1nc-2c(C)[nH]1 (single isomer, unassigned) [Example 151-b]",10.8 nM,–
"COC(=O)Nc1ccc2c(c1)NC(=O)CC[C@@H](C)C[C@@H](c1ccc(-c3c(F)ccc(Cl)c3F)c[n+]1[O-])c1nc-2c(C)[nH]1 (single isomer, unassigned) [Example 151-c]",29 nM,–
"COC(=O)Nc1ccc2c(c1)NC(=O)CC[C@@H](C)C[C@H](c1ccc(-c3c(F)cccc3OC(F)F)c[n+]1[O-])c1nc-2c(C)[nH]1 (single isomer, unassigned) [Example 152-a]",2.76 nM,–
"COC(=O)Nc1ccc2c(c1)NC(=O)CC[C@H](C)C[C@H](c1ccc(-c3c(F)cccc3OC(F)F)c[n+]1[O-])c1nc-2c(C)[nH]1 (single isomer, unassigned) [Example 152-b]",114 nM,–
"C[C@H]1CCC[C@@H](c2ccc(-c3cc(Cl)ccc3-n3cc(C(F)(F)F)cn3)c[n+]2[O-])c2cccc(c2)-c2c(cnn2C(F)F)NC1=O (single isomer, unassigned) [Example 168-d]",161 nM,–
